Holding throughout (type): functional
One assay addresses Prothrombin (Bos taurus, UniProt P00735). The assay is described as follows: thrombin protease inhibitors – biochemical, fluorescence polarization, uHTS hits, dose response (AID 602369).
For assay [1], the target named is T1, Rac GTPase-activating protein 1 (Homo sapiens, UniProt Q9H0H5).
T1 sequence (Q9H0H5 whole entry): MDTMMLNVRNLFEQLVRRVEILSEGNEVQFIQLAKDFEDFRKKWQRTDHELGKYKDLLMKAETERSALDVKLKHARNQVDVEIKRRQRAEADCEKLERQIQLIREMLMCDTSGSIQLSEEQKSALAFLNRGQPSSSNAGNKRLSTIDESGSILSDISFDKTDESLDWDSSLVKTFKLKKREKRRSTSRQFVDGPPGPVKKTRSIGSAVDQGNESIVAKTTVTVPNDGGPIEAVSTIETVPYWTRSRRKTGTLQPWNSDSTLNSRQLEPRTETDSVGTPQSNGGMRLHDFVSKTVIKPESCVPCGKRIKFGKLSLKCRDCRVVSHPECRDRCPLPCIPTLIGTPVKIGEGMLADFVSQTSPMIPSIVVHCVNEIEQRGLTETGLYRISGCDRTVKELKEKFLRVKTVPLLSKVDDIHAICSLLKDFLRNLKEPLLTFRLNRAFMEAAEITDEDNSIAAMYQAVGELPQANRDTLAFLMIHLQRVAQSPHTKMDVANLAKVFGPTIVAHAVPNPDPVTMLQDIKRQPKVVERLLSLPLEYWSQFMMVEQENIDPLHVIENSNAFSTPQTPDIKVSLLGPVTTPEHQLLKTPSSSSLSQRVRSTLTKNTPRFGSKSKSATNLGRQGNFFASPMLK
The assay can be described thus: blockers of MgcRacGAP-driven Rac1 GTP hydrolysis – biochemical, ADP Hunter fluorescence, primary and confirmatory, confirmation (AID 624330).

In another assay the target is T2, Caspase-3 (Homo sapiens, UniProt P42574).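 Further: Dose-response selectivity test against caspase-3 for candidate inhibitors of sentrin-specific proteases (SENPs).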
T2 sequence (P42574 whole entry): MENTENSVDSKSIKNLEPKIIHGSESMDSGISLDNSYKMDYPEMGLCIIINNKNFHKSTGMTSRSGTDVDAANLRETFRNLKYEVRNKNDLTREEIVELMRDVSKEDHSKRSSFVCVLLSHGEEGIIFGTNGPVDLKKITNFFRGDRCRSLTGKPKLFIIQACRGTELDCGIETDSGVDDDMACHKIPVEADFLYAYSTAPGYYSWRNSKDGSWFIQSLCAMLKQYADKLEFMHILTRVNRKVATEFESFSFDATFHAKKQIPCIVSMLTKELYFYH

For assay [2], the target named is T3, Apoptotic protease-activating factor 1 (Homo sapiens, UniProt O14727).
T3 sequence (O14727 whole entry): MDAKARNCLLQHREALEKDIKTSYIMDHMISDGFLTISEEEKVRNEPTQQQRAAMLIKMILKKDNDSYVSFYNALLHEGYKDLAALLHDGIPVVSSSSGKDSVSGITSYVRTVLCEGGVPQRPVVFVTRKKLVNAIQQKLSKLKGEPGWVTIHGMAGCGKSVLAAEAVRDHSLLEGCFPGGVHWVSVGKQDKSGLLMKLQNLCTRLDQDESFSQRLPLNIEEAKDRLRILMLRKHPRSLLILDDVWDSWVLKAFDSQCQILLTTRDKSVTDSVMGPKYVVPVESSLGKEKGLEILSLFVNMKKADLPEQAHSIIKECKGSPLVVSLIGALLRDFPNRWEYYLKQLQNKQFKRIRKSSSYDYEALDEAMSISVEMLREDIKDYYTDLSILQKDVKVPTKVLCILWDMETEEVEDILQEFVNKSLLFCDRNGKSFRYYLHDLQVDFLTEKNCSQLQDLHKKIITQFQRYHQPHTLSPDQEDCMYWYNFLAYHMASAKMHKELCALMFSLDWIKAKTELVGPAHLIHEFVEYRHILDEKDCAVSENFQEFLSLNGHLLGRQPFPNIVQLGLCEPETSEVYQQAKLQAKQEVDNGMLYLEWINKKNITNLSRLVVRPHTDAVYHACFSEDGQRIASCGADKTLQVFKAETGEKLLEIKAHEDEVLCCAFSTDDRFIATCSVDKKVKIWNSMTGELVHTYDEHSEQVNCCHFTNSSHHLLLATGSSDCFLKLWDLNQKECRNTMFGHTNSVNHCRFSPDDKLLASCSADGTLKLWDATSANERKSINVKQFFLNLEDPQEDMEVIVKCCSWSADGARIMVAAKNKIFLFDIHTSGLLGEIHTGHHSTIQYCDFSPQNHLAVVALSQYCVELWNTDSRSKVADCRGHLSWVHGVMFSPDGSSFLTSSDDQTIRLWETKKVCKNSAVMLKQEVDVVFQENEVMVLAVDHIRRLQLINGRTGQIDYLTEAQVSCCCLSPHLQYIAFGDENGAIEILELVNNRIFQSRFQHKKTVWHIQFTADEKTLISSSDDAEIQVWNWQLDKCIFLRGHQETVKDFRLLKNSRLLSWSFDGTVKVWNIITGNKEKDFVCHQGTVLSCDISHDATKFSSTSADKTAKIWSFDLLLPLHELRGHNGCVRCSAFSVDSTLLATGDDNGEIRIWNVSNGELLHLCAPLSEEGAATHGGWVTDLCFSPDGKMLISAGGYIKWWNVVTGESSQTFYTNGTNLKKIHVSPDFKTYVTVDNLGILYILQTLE

Each structure is given as a SMILES string. Activity calls are given as the source filed them. For most assays here, no stated cut-off is given here; in the data, actives have a measured IC50 and inactives only a lower limit.

Consider `O=[N+]([O-])c1ccc(N/N=C/c2ccc[nH]2)cc1`, for which the IC50 at Prothrombin was 9.84 µM (active); in assay [1] it was 44.5 µM (active).
As to `CC(=O)N(/N=C1\Sc2ccccc2C1=O)c1cccc(C)c1`, the results for the IC50 (at Caspase-3; in assay [2]) were 65.8 µM (active) and 4.46 µM (active), respectively.

The record behind these values is ChEMBL document CHEMBL1201862, “PubChem BioAssay data set” (2004).
